Assay results published in patent US10766884B2 (Pfizer Inc., priority 2018, dated 2020).

Experiments:
CDK6 = CDK6 (Homo sapiens (Human), UniProt Q00534); test: Phospho-Serine 795 Rb ELISA assay in MV4-11 cells; type: cell-based; conditions: overnight treatment, phospho-Rb S795, read-out: CDK6 pRB S795 ELISA MV4-11 cells IC50
Description: (§1) JEKO-1 or MV4-11 cells were seeded at 15,000 or 20,000 cells per well, respectively, in 100 μL growth media and allowed to incubate at 37° C. with 5% CO2 overnight. The following day, compounds were serially diluted from a 10 mM top dose for an 11-point 3-fold dilution curve in DMSO. Compounds were intermediately diluted 1:200 into growth media prior to diluting 1:5 on cells for final concentration 10 μM to 0.1 nM in 0.1% DMSO on cells. JEKO-1 and MV4-11 cells were treated were treated overnight, at 37° C. with 5% CO2. Cells were lysed in 100 μL/well CST lysis buffer on ice and transferred to pre-coated and blocked anti-phospho-Ser795 Rb ELISA plates for overnight incubation at 4° C. Plates were washed to remove residual, unbound cellular proteins and total Rb detection antibody added for 90 minutes at 37° C. Following wash to remove unbound total Rb antibody, the HRP tagged antibody was allowed to bind for 30 minutes at 37° C. Following wash to remove unbound HRP antibody, Glo Substrate Reagent was added and incubated protected from light for 5 to 10 minutes. Plates were read in luminescence mode and IC50 values calculated.

CDK4 = CDK4 (Homo sapiens (Human), UniProt P11802); test: Phospho-Serine 795 Rb ELISA assay in JEKO-1 cells; type: cell-based; conditions: overnight treatment, phospho-Rb S795, read-out: CDK4 pRB S795 ELISA JEKO-1 cells IC50
Description: as §1

CDK6/Cyclin D3 = CDK6/Cyclin D3 (Homo sapiens (Human), UniProt Q00534); test: CDK6/Cyclin D3 mobility shift assay; type: biochemical; conditions: activated CDK6/Cyclin D3, 3.5 mM ATP, Morrison fit; read-out: CDK6_D3 Ki
CDK4/Cyclin D1 = CDK4/Cyclin D1 (Homo sapiens (Human), UniProt P11802); test: CDK4/Cyclin D1 mobility shift assay; type: biochemical; conditions: activated CDK4/Cyclin D1, 3.5 mM ATP, Morrison fit; read-out: CDK4D1 Ki
Sequence of CDK4/Cyclin D1 (P11802 whole entry): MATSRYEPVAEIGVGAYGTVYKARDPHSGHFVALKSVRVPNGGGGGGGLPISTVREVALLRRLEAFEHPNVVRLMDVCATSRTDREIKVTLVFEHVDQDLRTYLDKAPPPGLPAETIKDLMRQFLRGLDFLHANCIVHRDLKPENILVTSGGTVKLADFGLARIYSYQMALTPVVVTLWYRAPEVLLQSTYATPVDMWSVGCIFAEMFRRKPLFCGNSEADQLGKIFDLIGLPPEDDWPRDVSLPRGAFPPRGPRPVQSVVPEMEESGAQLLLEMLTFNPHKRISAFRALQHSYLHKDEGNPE
Sequence of CDK4/Cyclin D1 (P24385 whole entry partner): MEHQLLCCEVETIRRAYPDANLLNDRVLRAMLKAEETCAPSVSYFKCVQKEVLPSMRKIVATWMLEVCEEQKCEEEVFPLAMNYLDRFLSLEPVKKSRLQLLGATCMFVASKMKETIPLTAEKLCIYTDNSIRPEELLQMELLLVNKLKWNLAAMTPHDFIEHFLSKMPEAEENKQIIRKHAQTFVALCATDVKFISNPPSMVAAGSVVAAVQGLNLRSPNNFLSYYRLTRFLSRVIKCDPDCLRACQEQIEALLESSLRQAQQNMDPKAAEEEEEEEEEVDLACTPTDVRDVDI

Sequence of CDK4 (P11802 2-303): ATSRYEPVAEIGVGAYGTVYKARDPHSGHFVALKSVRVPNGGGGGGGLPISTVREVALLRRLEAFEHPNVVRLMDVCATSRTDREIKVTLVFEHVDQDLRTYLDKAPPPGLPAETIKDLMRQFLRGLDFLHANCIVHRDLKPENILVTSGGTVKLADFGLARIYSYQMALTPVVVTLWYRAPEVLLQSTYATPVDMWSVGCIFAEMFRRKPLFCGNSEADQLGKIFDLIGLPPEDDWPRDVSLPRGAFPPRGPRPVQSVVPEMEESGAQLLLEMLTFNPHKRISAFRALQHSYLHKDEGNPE
Sequence of CDK4 (P24385 whole entry partner): as the sequence (P24385 whole entry partner) above
Sequence of CDK6 (Q00534 whole entry): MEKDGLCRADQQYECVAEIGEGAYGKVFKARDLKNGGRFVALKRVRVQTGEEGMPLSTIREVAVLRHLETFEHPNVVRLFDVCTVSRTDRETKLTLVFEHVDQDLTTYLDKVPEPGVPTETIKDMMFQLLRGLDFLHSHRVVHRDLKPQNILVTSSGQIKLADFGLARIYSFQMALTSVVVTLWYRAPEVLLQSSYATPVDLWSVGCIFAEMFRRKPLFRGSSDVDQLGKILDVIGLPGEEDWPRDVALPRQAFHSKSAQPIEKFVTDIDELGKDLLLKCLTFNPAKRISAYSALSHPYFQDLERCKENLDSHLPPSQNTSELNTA
Sequence of CDK6 (P30281 whole entry partner): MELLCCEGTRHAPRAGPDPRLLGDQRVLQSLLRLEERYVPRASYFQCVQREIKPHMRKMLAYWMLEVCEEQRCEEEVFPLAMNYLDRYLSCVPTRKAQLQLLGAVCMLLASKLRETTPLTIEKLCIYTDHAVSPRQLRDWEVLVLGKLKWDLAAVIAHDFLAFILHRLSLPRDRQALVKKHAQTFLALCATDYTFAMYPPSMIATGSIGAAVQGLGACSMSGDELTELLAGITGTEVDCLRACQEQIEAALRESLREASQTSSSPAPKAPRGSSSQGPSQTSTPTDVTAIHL
Sequence of CDK6/Cyclin D3 (Q00534 whole entry): as the sequence (Q00534 whole entry) above
Sequence of CDK6/Cyclin D3 (P30281 whole entry partner): as the sequence (P30281 whole entry partner) above

| SMILES | IC50 (CDK6) | IC50 (CDK4) | Ki (CDK6/Cyclin D3) | Ki (CDK4/Cyclin D1) |
| --- | --- | --- | --- | --- |
| Cc1nc2c(F)cc(-c3nc(N[C@@H]4CCN(S(C)(=O)=O)C[C@H]4O)ncc3Cl)cc2n1C(C)C [Example A01, (3R,4R)-4-({5-chloro-4-[4-fluoro-2-methyl-1-(propan-2-yl)-1H-benzimidazol-6-yl]pyrimidin-2-yl}amino)-1-(methanesulfonyl)piperidin-3-ol] | 76.5 nM | 25.3 nM | 2.3 nM | 0.1 nM |
| CC(C)n1c([C@H](C)O)nc2cc(F)c(-c3nc(N[C@@H]4CCOC[C@H]4O)ncc3Cl)cc21 [Example A12] | 108 nM | 29.8 nM | 7.9 nM | 0.6 nM |
| CC(C)n1c(C(F)F)nc2c(F)cc(-c3nc(N[C@@H]4CCN(S(C)(=O)=O)C[C@H]4O)ncc3Cl)cc21 [Example A69, (3R,4R)-4-({5-chloro-4-[2-(difluoromethyl)-4-fluoro-1-(propan-2-yl)-1H-benzimidazol-6-yl]pyrimidin-2-yl}amino)-1-(methanesulfonyl)piperidin-3-ol] | 238 nM | 101 nM | 4.9 nM | 0.7 nM |
| CC(C)n1cnc2c(F)cc(-c3nc(N[C@@H]4CCN(C(=O)C5(N)CC5)C[C@H]4O)ncc3Cl)cc21 [Example F28, (1-aminocyclopropyl)[(3R,4R)-4-({5-chloro-4-[4-fluoro-1-(propan-2-yl)-1H-benzimidazol-6-yl]pyrimidin-2-yl}amino)-3-hydroxypiperidin-1-yl]methanone] | 745 nM | 191 nM | 22.3 nM | 2.2 nM |
| COC(=O)N1CC[C@@H](Nc2ncc(F)c(-c3cc(F)c4nc(C)n(C(C)C)c4c3)n2)[C@H](O)C1 [Example F01, methyl (3R,4R)-4-({5-fluoro-4-[4-fluoro-2-methyl-1-(propan-2-yl)-1H-benzimidazol-6-yl]pyrimidin-2-yl}amino)-3-hydroxypiperidine-1-carboxylate] | 576 nM | 114 nM | 14.6 nM | 0.8 nM |
| CC(C)n1c(CC(N)C(F)F)nc2c(F)cc(-c3nc(N[C@@H]4CCOC[C@H]4O)ncc3Cl)cc21 (single isomer, unassigned) [Example A57, 3-({4-[2-(2-amino-3,3-difluoropropyl)-4-fluoro-1-(propan-2-yl)-1H-benzimidazol-6-yl]-5-chloropyrimidin-2-yl}amino)-1,5-anhydro-2,3-dideoxy-D-threo-pentitol] | 269 nM | 49 nM | 19.1 nM | 0.4 nM |
| CC(C)NCc1nc2c(F)cc(-c3nc(N[C@@H]4CCOC[C@H]4O)ncc3Cl)cc2n1C(C)C [Example H08, 1,5-anhydro-3-({5-chloro-4-[4-fluoro-1-(propan-2-yl)-2-{[(propan-2-yl)amino]methyl}-1H-benzimidazol-6-yl]pyrimidin-2-yl}amino)-2,3-dideoxy-D-threo-pentitol] | 306 nM | 35.6 nM | 44.5 nM | 1.2 nM |
| CC(C)n1c(C2CNC2)nc2c(F)cc(-c3nc(N[C@@H]4CCOC[C@H]4O)ncc3Cl)cc21 [Example C02, 1,5-anhydro-3-({4-[2-(azetidin-3-yl)-4-fluoro-1-(propan-2-yl)-1H-benzimidazol-6-yl]-5-chloropyrimidin-2-yl}amino)-2,3-dideoxy-D-threo-pentitol] | 1350 nM | 584 nM | 89.3 nM | 4.1 nM |
| CC1(C)CCc2nc3c(F)cc(-c4nc(N[C@@H]5CCN(S(C)(=O)=O)C[C@H]5O)ncc4Cl)cc3n21 [Example A09] | 57.6 nM | 16.8 nM | 1.4 nM | 0.1 nM |
| C[C@@H]1COCc2nc3c(F)cc(-c4nc(N[C@@H]5CCN(S(C)(=O)=O)C[C@H]5O)ncc4Cl)cc3n21 [Example A11] | 144 nM | 123 nM | 3 nM | 0.3 nM |
| CC(O)c1nc2c(F)cc(-c3nc(N[C@@H]4CCOC[C@H]4O)ncc3Cl)cc2n1C(C)C(F)F (single isomer, unassigned) [Example A36] | 43.9 nM | 19.6 nM | 3.7 nM | 0.2 nM |
| CC1(C)OCCn2nc3c(F)cc(-c4nc(N[C@@H]5CCN(S(C)(=O)=O)C[C@H]5O)ncc4Cl)cc3c21 [Example A26] | 24.3 nM | 12.2 nM | 4.2 nM | 0.2 nM |
| CNC(=O)CN1CC[C@@H](Nc2cc(-c3ccc4ncn(C(C)(C)C)c4n3)c(Cl)cn2)[C@H](O)C1 [Example F33, 2-[(3R,4R)-4-{[4-(3-tert-butyl-3H-imidazo[4,5-b]pyridin-5-yl)-5-chloropyridin-2-yl]amino}-3-hydroxypiperidin-1-yl]-N-methylacetamide] | 113 nM | 24.6 nM | 5.2 nM | 0.2 nM |
| CC(C)n1c(CN(C)C)nc2c(F)cc(-c3nc(N[C@@H]4CCOC[C@H]4O)ncc3Cl)cc21 [Example H02, 1,5-anhydro-3-[(5-chloro-4-{2-[(dimethylamino)methyl]-4-fluoro-1-(propan-2-yl)-1H-benzimidazol-6-yl}pyrimidin-2-yl)amino]-2,3-dideoxy-D-threo-pentitol] | 118 nM | 52.1 nM | 20 nM | 0.8 nM |
| Cc1nc2ccc(-c3cc(N[C@@H]4CCOC[C@H]4O)ncc3Cl)nc2n1C(C)C [Example D05, 1,5-anhydro-3-({5-chloro-4-[2-methyl-3-(propan-2-yl)-3H-imidazo[4,5-b]pyridin-5-yl]pyridin-2-yl}amino)-2,3-dideoxy-D-threo-pentitol] | 258 nM | 85.7 nM | 39.4 nM | 2.2 nM |
| Cc1cc(-c2nc(N[C@@H]3CCN(S(C)(=O)=O)C[C@H]3O)ncc2F)cc2c1nc(C)n2C(C)C [Example A79, (3R,4R)-4-({4-[2,4-dimethyl-1-(propan-2-yl)-1H-benzimidazol-6-yl]-5-fluoropyrimidin-2-yl}amino)-1-(methanesulfonyl)piperidin-3-ol] | 1140 nM | 598 nM | 17.6 nM | 1.8 nM |
| CC(C)NCc1nc2c(F)cc(-c3nc(N[C@@H]4CCN(S(C)(=O)=O)C[C@H]4O)ncc3Cl)cc2n1C(C)C [Example H10, (3R,4R)-4-({5-chloro-4-[4-fluoro-1-(propan-2-yl)-2-{[(propan-2-yl)amino]methyl}-1H-benzimidazol-6-yl]pyrimidin-2-yl}amino)-1-(methanesulfonyl)piperidin-3-ol] | 51.1 nM | 14.9 nM | 16.4 nM | 0.5 nM |
| Cn1nc2ccc(-c3nc(N[C@@H]4CCN(S(C)(=O)=O)C[C@H]4O)ncc3Cl)cc2c1C(C)(C)O [Example A29] | 95.7 nM | 68.6 nM | 5.1 nM | 0.6 nM |
| CCc1nc2c(F)cc(-c3nc(N[C@@H]4CCN(S(C)(=O)=O)C[C@H]4O)ncc3Cl)cc2n1C1COC1 [Example A71, (3R,4R)-4-({5-chloro-4-[2-ethyl-4-fluoro-1-(oxetan-3-yl)-1H-benzimidazol-6-yl]pyrimidin-2-yl}amino)-1-(methanesulfonyl)piperidin-3-ol] | 287 nM | 94.9 nM | 11.4 nM | 0.8 nM |
| CC(C)n1c(C(C)(C)N)nc2c(F)cc(-c3nc(N[C@@H]4CCOC[C@H]4O)ncc3Cl)cc21 [Example A41, 3-({4-[2-(2-aminopropan-2-yl)-4-fluoro-1-(propan-2-yl)-1H-benzimidazol-6-yl]-5-chloropyrimidin-2-yl}amino)-1,5-anhydro-2,3-dideoxy-D-threo-pentitol] | 216 nM | 92.8 nM | 48.8 nM | 3.1 nM |
| Cc1nc2cc(Cl)c(-c3nc(N[C@@H]4CCN(S(C)(=O)=O)C[C@H]4O)ncc3F)cc2n1C(C)C [Example C01, (3R,4R)-4-({4-[5-chloro-2-methyl-1-(propan-2-yl)-1H-benzimidazol-6-yl]-5-fluoropyrimidin-2-yl}amino)-1-(methanesulfonyl)piperidin-3-ol] | 1380 nM | 176 nM | 98.1 nM | 5.2 nM |
| Cc1cnc(N[C@@H]2CCN(S(C)(=O)=O)C[C@H]2O)nc1-c1cc(F)c2nc(C)n(C(C)C)c2c1 [Example A83, (3R,4R)-4-({4-[4-fluoro-2-methyl-1-(propan-2-yl)-1H-benzimidazol-6-yl]-5-methylpyrimidin-2-yl}amino)-1-(methanesulfonyl)piperidin-3-ol] | 1220 nM | 395 nM | 88.5 nM | 4.1 nM |
| CC(C(F)F)n1c(CO)nc2c(F)cc(-c3nc(N[C@@H]4CCN(S(C)(=O)=O)C[C@H]4O)ncc3Cl)cc21 (stereo partly drawn) [Example A92, (3R,4R)-4-({5-chloro-4-[1-(1,1-difluoropropan-2-yl)-4-fluoro-2-(hydroxymethyl)-1H-benzimidazol-6-yl]pyrimidin-2-yl}amino)-1-(methanesulfonyl)piperidin-3-ol] | 42.9 nM | 23.8 nM | 0.9 nM | 0.1 nM |
